{"source": "patent US20050032854A1", "about": "“Insulin resistance improving agents” (priority 2001, published 2005)", "tested_on": "spontaneously hypertensive rats (SHR)", "test": "Insulin sensitivity evaluation by glucose clamp technique in spontaneously hypertensive rats (SHR)", "type": "in vivo, rat", "conditions": "for M-value (average glucose infusion rate, index of insulin sensitivity): n=10, vehicle 5.9±0.5", "procedure": "For evaluation of insulin resistance, 23-week-old spontaneously hypertensive rats (SHR) were used. Vehicle (0.5% methyl cellulose solution administration) and compound A (0.3 and 1 mg/kg/day) were orally administered for 2 weeks, after which an insulin sensitivity evaluation test by a glucose clamp technique was performed. The rats were grouped such that each parameter was leveled based on the glucose level and plasma insulin value before start of the drug administration. SHR were fasted from the evening of the day before the operation of the glucose clamp technique.\nThe glucose clamp technique was performed according to the following procedures. The rats were anesthetized with pentobarbital sodium (50 mg/kg i.p.) and catheters [PR45 (trademark), NATUME SEISAKUSHO CO., LTD.] for blood collection, for intravenous injection of insulin [novolin R injection 40 (trademark), Novo Nordisk Pharma Ltd.] and for intravenous injection of glucose [Otsuka glucose injection 50% (trademark), Otsuka Pharmaceutical Co., Ltd.] were each placed in the right common carotid artery, left femoral vein and right femoral vein, respectively. The glucose level was measured using a simplified glucose meter [Advantage II (trademark), Roche Diagnostics Corporation]. Using a peristaltic pump [MINIPULS 3 (trademark), Gilson Company, Inc.], insulin was constantly infused continuously at an injection rate of 40 and 20 mU/kg/min for 5 and 3 min, respectively, to afford a high insulin state, and thereafter high insulin state was maintained at 8 mU/kg/min.. Glucose was constantly infused intravenously to maintain the range of initial value±10% of blood glucose, using a different peristaltic pump. […] Glucose was constantly infused for-90 min and an average of glucose infusion rate for the period of 40 min from 50 min to 90 min after the start of the infusion was calculated and used as an index showing the insulin sensitivity (M-value). […] For statistic analysis, Williams' test was used and significance was evaluated at a risk rate of less than 2.5%."}
{"smiles": "CCOc1nc2cccc(C(=O)O)c2n1Cc1ccc(-c2ccccc2-c2nc(=O)o[nH]2)cc1", "note": "[compound A, 2-Ethoxy-1-[[2′-(5-oxo-2,5-dihydro-1,2,4-oxadiazol-3-yl)biphenyl-4-yl]methyl]-1H-benzimidazole-7-carboxylic acid]", "values": [{"measurement": "M-value (average glucose infusion rate, index of insulin sensitivity)", "setting": "0.3 mg/kg/day orally for 2 weeks", "value": "7.8 ± 0.5", "unit": "mg/kg/min"}, {"measurement": "M-value (average glucose infusion rate, index of insulin sensitivity)", "setting": "1 mg/kg/day orally for 2 weeks", "value": "8.6 ± 0.6", "unit": "mg/kg/min"}, {"measurement": "insulin sensitivity enhancing effect", "setting": "0.3 and 1 mg/kg/day orally for 2 weeks", "value": "dose-dependent insulin sensitivity enhancing effect"}]}
